{
  "source": "patent US20220009920A1",
  "about": "(GB005, Inc., priority 2020, published 2022)",
  "assay_in_all_cases": "Large panel kinase profiling",
  "type_in_all_cases": "biochemical",
  "conditions_in_all_cases": "1 μM test article, 1 mM ATP",
  "key": {"AURKC/AURC": {"target": "T1, AURKC/AURC (Homo sapiens, UniProt Q9UQB9)", "T1 sequence (Q9UQB9 1-309)": "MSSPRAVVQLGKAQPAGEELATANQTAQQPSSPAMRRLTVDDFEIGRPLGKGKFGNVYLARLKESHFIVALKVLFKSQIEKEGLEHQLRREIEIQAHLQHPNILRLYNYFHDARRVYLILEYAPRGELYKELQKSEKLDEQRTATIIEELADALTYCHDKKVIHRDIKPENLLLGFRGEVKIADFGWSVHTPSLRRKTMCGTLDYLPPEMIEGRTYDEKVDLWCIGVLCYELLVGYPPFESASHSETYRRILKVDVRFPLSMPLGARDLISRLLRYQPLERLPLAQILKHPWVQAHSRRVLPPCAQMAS", "how_it_was_run": "(§1)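 Fluorescence intensity (Ex 360 nm, Em 485 nm) was monitored continuously, once per minute, in PhosphoSens CSox-Sensor kinase reactions held at 30° C. Compound was present at 1 μM and ATP at 1 mM.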"}, "CDK16/T": {"target": "T2, CDK16/T (Homo sapiens, UniProt Q00536)", "T2 construct": "AssayQuant Technologies, Inc. (ran the panel)", "T2 sequence (Q00536 whole entry, species assumed)": "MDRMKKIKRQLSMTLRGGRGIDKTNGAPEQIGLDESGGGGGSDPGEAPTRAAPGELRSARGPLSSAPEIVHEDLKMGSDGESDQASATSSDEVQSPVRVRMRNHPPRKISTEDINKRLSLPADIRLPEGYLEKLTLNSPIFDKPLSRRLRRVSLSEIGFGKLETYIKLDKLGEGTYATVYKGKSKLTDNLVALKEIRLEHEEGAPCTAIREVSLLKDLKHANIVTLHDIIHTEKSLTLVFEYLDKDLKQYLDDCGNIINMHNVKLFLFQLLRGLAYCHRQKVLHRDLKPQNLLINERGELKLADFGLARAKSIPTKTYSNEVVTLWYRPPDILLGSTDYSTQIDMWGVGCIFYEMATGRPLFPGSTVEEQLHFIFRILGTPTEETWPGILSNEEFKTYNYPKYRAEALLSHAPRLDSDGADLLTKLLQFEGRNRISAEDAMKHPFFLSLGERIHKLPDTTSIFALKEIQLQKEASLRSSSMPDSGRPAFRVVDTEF", "T2 sequence (Q8ND76 whole entry partner, species assumed)": "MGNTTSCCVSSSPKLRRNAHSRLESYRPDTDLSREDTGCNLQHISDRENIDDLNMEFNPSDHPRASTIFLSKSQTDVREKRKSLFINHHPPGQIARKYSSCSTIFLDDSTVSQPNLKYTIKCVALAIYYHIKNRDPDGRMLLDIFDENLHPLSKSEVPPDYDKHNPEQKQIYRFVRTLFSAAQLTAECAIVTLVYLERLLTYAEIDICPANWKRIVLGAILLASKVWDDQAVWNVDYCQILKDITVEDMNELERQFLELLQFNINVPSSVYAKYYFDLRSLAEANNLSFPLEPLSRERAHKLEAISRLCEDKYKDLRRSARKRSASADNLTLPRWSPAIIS", "how_it_was_run": "as §1"}, "HIPK1": {"target": "T3, HIPK1 (Homo sapiens, UniProt Q86Z02)", "T3 construct": "AssayQuant Technologies, Inc. (service provider)", "how_it_was_run": "as §1"}, "MAP3K14": {"target": "MAP3K14 (Homo sapiens, UniProt Q99558)", "sequence (Q99558 whole entry, species assumed)": "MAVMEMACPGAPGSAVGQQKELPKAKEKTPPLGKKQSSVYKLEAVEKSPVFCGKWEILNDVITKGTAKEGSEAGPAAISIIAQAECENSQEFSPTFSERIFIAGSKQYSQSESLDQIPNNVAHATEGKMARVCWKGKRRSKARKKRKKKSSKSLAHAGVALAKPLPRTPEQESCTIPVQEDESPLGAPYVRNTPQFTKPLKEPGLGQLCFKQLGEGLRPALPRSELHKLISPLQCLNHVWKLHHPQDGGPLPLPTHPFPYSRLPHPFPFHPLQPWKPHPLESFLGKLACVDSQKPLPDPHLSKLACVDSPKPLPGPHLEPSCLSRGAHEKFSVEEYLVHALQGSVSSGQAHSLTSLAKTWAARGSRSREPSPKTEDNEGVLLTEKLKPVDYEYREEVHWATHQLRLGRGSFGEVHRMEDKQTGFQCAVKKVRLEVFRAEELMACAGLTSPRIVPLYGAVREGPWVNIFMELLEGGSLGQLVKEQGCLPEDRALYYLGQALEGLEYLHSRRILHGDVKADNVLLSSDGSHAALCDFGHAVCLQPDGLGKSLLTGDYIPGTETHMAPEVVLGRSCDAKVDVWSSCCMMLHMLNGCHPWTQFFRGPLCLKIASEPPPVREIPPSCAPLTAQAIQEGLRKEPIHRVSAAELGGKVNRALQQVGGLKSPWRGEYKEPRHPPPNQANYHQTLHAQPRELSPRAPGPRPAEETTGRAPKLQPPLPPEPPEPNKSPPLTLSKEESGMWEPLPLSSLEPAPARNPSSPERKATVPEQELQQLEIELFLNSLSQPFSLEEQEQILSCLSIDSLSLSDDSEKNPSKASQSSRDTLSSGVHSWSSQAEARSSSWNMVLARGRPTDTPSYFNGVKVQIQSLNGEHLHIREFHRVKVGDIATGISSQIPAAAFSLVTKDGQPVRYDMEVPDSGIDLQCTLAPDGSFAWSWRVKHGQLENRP", "how_it_was_run": "as §1"}, "MAPK8/JNK1": {"target": "T4, MAPK8/JNK1 (Homo sapiens, UniProt P45983)", "T4 construct": "AssayQuant Technologies, Inc. (service provider)", "T4 sequence (P45983 whole entry)": "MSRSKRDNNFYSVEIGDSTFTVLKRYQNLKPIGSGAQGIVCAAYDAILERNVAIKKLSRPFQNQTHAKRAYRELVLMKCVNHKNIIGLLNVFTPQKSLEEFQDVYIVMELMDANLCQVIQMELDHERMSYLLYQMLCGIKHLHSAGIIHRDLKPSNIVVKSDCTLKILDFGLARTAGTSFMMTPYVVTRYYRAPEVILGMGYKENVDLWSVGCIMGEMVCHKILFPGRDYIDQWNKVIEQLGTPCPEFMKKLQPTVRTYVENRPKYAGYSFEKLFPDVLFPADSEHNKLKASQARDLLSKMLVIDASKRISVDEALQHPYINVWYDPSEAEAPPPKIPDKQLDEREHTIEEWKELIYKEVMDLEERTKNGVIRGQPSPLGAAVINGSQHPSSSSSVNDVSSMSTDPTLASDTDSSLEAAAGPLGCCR", "how_it_was_run": "as §1"}, "MELK": {"target": "T5, MELK (Homo sapiens, UniProt Q14680)", "T5 construct": "AssayQuant Technologies, Inc. (assay service)", "T5 sequence (Q14680 whole entry, species assumed)": "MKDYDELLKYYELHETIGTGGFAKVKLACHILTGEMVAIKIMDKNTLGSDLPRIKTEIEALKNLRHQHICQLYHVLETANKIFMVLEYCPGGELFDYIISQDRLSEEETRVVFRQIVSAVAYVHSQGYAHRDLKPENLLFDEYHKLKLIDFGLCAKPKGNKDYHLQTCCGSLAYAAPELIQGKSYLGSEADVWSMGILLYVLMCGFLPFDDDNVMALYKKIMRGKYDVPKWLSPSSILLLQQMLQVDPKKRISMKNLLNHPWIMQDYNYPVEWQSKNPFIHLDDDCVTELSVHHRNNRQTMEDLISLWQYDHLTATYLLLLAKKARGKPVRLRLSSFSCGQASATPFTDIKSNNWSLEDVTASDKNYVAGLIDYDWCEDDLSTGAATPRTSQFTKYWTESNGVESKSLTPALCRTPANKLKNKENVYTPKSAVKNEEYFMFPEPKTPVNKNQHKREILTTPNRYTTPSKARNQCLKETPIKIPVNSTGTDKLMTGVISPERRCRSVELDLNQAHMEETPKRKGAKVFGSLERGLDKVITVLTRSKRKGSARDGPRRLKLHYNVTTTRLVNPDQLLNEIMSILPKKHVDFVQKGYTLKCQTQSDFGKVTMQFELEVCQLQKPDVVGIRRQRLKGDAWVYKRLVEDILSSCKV", "how_it_was_run": "as §1"}, "NEK2": {"target": "T6, NEK2 (Homo sapiens, UniProt P51955)", "T6 construct": "AssayQuant Technologies, Inc. (assay service)", "T6 sequence (P51955 1-445)": "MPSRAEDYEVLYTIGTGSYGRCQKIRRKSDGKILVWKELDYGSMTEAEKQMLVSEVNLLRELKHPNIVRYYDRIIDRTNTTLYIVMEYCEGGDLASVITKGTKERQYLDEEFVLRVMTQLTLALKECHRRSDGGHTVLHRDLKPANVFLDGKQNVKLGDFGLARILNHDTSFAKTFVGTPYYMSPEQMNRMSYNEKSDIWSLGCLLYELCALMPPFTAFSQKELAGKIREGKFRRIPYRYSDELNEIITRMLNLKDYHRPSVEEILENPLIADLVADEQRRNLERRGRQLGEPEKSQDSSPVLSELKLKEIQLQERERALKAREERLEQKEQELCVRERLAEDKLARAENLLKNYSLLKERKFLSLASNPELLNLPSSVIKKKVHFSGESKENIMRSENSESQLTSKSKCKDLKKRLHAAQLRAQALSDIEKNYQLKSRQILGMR", "how_it_was_run": "as §1"}, "PRKAA1/AMPK121": {"target": "PRKAA1/AMPK121 (Homo sapiens, UniProt Q13131)", "sequence (Q13131 whole entry, species assumed)": "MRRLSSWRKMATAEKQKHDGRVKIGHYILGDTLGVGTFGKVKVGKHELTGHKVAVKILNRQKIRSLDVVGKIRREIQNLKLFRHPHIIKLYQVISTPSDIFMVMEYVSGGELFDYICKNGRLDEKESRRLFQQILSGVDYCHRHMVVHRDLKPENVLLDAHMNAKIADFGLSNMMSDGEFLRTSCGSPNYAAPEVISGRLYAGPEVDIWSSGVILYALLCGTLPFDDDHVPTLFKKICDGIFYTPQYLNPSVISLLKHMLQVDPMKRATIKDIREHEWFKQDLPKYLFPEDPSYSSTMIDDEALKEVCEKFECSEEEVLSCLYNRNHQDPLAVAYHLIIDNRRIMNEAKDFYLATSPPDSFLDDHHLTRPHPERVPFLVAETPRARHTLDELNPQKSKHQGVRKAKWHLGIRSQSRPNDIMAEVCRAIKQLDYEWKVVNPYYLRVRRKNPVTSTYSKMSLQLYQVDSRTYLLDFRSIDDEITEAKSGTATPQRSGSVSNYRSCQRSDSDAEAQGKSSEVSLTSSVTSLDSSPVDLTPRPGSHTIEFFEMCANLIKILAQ", "sequence (O43741 whole entry partner, species assumed)": "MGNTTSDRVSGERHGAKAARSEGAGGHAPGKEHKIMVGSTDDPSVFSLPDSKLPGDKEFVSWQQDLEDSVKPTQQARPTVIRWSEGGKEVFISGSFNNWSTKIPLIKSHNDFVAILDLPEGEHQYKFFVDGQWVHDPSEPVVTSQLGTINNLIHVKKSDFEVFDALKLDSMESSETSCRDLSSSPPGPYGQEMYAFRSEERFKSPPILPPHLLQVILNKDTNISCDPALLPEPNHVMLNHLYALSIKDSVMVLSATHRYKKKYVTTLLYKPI", "sequence (P54619 whole entry partner, species assumed)": "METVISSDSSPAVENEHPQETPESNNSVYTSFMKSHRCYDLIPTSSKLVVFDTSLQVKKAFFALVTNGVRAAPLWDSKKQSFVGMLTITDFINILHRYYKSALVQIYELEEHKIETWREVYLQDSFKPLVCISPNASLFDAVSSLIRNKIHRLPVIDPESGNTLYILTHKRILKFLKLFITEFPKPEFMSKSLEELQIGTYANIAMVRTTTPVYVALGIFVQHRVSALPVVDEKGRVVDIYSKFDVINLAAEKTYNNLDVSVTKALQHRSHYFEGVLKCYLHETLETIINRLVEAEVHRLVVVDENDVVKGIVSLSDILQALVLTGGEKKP", "how_it_was_run": "as §1"}, "PRKG1": {"target": "T7, PRKG1 (Homo sapiens, UniProt Q13976)", "T7 sequence (Q13976 1-671)": "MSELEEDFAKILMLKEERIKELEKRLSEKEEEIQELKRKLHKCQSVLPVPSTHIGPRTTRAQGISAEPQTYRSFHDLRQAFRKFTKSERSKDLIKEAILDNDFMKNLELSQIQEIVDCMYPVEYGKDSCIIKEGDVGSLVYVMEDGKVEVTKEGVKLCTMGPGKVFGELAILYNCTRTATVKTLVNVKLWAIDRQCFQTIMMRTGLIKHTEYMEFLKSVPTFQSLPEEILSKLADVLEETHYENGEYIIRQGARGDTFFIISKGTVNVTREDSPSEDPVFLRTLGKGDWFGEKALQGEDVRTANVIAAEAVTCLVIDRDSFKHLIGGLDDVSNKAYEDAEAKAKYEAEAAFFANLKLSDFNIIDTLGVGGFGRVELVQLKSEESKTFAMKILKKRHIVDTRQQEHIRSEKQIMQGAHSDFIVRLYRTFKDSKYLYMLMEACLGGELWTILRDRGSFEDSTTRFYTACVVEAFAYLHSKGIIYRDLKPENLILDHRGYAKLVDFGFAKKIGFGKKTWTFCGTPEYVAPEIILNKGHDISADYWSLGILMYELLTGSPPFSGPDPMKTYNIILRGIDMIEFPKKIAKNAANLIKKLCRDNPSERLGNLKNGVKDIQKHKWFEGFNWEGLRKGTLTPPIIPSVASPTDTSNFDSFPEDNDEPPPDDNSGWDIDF", "how_it_was_run": "as §1"}, "RPS6KA3/RSK2": {"target": "T8, RPS6KA3/RSK2 (Homo sapiens, UniProt P51812)", "T8 construct": "AssayQuant Technologies, Inc. (contract assay)", "T8 sequence (P51812 whole entry)": "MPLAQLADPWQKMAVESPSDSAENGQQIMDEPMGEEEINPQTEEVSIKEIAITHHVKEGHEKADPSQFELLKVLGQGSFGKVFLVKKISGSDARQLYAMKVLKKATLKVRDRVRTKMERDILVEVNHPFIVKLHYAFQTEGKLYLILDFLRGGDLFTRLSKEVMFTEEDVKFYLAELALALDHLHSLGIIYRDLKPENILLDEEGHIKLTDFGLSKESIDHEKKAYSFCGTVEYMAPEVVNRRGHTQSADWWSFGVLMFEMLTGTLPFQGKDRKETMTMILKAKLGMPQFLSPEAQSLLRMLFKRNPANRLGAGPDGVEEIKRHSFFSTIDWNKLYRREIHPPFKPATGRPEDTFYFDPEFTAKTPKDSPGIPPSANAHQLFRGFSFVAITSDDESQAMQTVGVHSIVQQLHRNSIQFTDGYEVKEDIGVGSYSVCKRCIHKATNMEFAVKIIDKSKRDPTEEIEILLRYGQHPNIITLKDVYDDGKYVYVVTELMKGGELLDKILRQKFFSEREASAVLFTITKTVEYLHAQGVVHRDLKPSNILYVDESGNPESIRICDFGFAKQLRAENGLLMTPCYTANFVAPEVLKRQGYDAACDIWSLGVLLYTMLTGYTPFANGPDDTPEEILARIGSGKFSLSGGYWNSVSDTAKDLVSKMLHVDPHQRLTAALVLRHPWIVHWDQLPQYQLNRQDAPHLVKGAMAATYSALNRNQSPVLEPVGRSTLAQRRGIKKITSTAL", "how_it_was_run": "as §1"}},
  "data": [
    {"smiles": "C=CC(=O)N1CCCC(c2c(F)cc(C(N)=O)c3[nH]c4c(c23)CCCCC4)C1", "note": "(single isomer, unassigned) [Compound 5-6]", "values": [
      {"measurement": "inhibition at 1 µM", "setting": "AURKC/AURC", "result": -8.9, "unit": "%"},
      {"measurement": "inhibition at 1 µM", "setting": "CDK16/T", "result": 19.7, "unit": "%"},
      {"measurement": "inhibition at 1 µM", "setting": "HIPK1", "result": 6.6, "unit": "%"},
      {"measurement": "inhibition at 1 µM", "setting": "MAP3K14", "result": 10.5, "unit": "%"},
      {"measurement": "inhibition at 1 µM", "setting": "MAPK8/JNK1", "result": -0.6, "unit": "%"},
      {"measurement": "inhibition at 1 µM", "setting": "MELK", "result": -27.6, "unit": "%"},
      {"measurement": "inhibition at 1 µM", "setting": "NEK2", "result": -26.5, "unit": "%"},
      {"measurement": "inhibition at 1 µM", "setting": "PRKAA1/AMPK121", "result": -7.9, "unit": "%"},
      {"measurement": "inhibition at 1 µM", "setting": "PRKG1", "result": -2.8, "unit": "%"},
      {"measurement": "inhibition at 1 µM", "setting": "RPS6KA3/RSK2", "result": 5.8, "unit": "%"}
    ]},
    {"smiles": "C=CC(=O)N1CCC[C@@H](c2c(F)cc(C(N)=O)c3[nH]c4c(c23)CC2(CC4)CC2)C1", "note": "[Compound 6-2, (S)-5-(1-acryloylpiperidin-3-yl)-6-fluoro-1,2,4,9-tetrahydrospiro[carbazole-3,1′-cyclopropane]-8-carboxamide]", "values": [
      {"measurement": "inhibition at 1 µM", "setting": "AURKC/AURC", "result": -2, "unit": "%"},
      {"measurement": "inhibition at 1 µM", "setting": "CDK16/T", "result": -3.1, "unit": "%"},
      {"measurement": "inhibition at 1 µM", "setting": "HIPK1", "result": 41.1, "unit": "%"},
      {"measurement": "inhibition at 1 µM", "setting": "MAP3K14", "result": -11.5, "unit": "%"},
      {"measurement": "inhibition at 1 µM", "setting": "MAPK8/JNK1", "result": 21.7, "unit": "%"},
      {"measurement": "inhibition at 1 µM", "setting": "MELK", "result": -14.5, "unit": "%"},
      {"measurement": "inhibition at 1 µM", "setting": "NEK2", "result": -1.4, "unit": "%"},
      {"measurement": "inhibition at 1 µM", "setting": "PRKAA1/AMPK121", "result": 31.3, "unit": "%"},
      {"measurement": "inhibition at 1 µM", "setting": "PRKG1", "result": 0, "unit": "%"},
      {"measurement": "inhibition at 1 µM", "setting": "RPS6KA3/RSK2", "result": -34.6, "unit": "%"}
    ]},
    {"smiles": "C=CC(=O)N1CCC[C@@H](c2c(F)cc(C(N)=O)c3[nH]c4c(c23)CCC4)C1", "note": "[Compound 10-2, (S)-8-(1-acryloylpiperidin-3-yl)-7-fluoro-1,2,3,4-tetrahydrocyclo-penta[b]indole-5-carboxamide]", "values": [
      {"measurement": "inhibition at 1 µM", "setting": "AURKC/AURC", "result": 16.7, "unit": "%"},
      {"measurement": "inhibition at 1 µM", "setting": "CDK16/T", "result": -8.1, "unit": "%"},
      {"measurement": "inhibition at 1 µM", "setting": "HIPK1", "result": 33.6, "unit": "%"},
      {"measurement": "inhibition at 1 µM", "setting": "MAP3K14", "result": -0.2, "unit": "%"},
      {"measurement": "inhibition at 1 µM", "setting": "MAPK8/JNK1", "result": 13.6, "unit": "%"},
      {"measurement": "inhibition at 1 µM", "setting": "MELK", "result": 11.1, "unit": "%"},
      {"measurement": "inhibition at 1 µM", "setting": "NEK2", "result": 10.6, "unit": "%"},
      {"measurement": "inhibition at 1 µM", "setting": "PRKAA1/AMPK121", "result": 34.2, "unit": "%"},
      {"measurement": "inhibition at 1 µM", "setting": "PRKG1", "result": -5.8, "unit": "%"},
      {"measurement": "inhibition at 1 µM", "setting": "RPS6KA3/RSK2", "result": -27.7, "unit": "%"}
    ]}
  ]
}
